Series [1] relates to Encephalitozoon (Septata) intestinalis. Put plainly: growth inhibitory activity against E. intestinalis grown on Vero cells (spore count). The following applies: 336 h, 0.1 μg/ml, spore number after 2 weeks, read-out: Growth (% of control). It counts as cell-based. As to the method:
Compounds 2, 10 and 15 were tested for i,7 vitro growth inhibitory activity against E. intestinalis, grown on African green monkey kidney cells (Vero cells). Vero cells were grown in 25-cm^2 culture flasks at 37° C. in a humidified 5% carbon dioxide incubator. Cultures were maintained in minimal essential medium (Gibco BRL, Gaithersburg, Md., U.S.A.), supplemented with L-glutamine, Earle's salts, 5% heat-inactivated foetal calf serum (Hyclone Labs, Inc., U.S.A.), fungizone (2 μg/ml, Gibco BRL) and gentamicin (50 μg/ml, Gibco BRL). E. intestinalis spores were collected from the supernatant of an infected Vero cell culture and were used to infect normal cells to produce a fresh spore preparation for growth inhibition tests.
Growth inhibition tests were performed in 24-well culture plates. One ml of Vero cells (5×10^4 cells per ml) was placed in each well and the cells incubated for 12-15 hours at 37° C. The supernatant medium was then removed and replaced with 1 ml of medium containing 1.5-2.0×10^4 E. intestinalis spores per ml along with 1 μl of test compound dissolved in dimethylsulfoxide (DMSO) or DMSO alone for the control treatments without test compound. The plates were incubated at 37° C. and the medium was changed every 72 h along with fresh test compound in DMSO or DMSO alone (controls). After 2 weeks the supernatant was transferred from each well to a microcentiifuge tube, then concentrated by centrifugation with resuspension of the resulting E. intestinalis spore pellet in 300-500 μl fresh medium. The spore number in each sample was then determined by counting in a hemocytometer. The results in Table 11 show the effects of the test compounds on the number of spores and are expressed as a percentage of the spore number in the control treatment without test compound.

Series [2] relates to Leishmania major. Put plainly: in vitro growth inhibitory activity against L. major promastigotes. It counts as cell-based. An excerpt:
35, pp. 2198-2202 (1991).

The test system of series [3] is Giardia lamblia. Put plainly: in vitro growth inhibitory activity against Giardia lamblia. It counts as cell-based. As to conditions: Giardia duodenalis; concentration required to inhibit growth by 50%. On the procedure:
35, pp. 2198-2202 (1991). EC50 values for test compounds, expressed in parts per million (ppm), were calculated from dose response curves and are presented in Table 4. As used herein, the terminology "EC50" means the concentration of test compound required to inhibit growth by 50% are compared to a control lacking the test compound. Metronidazole was included as a standard in the tests for comparative purposes.

The subject of series [4] is Tetrahymena pyriformis. Kind of series: in vitro growth inhibitory activity against the ciliate Tetrahymena pyriformis. It counts as cell-based, Tetrahymena pyriformis (ATCC strain 30005). As to conditions: 24 hours, 25° C., read-out: EC50 Tetrahymena pyriformis. On the procedure:
Compounds were evaluated for in vitro growth inhibitory activity against the ciliate Tetrahymena pyriformis, which was used as an indicator organism for the Apicomplexia since by several criteria the ciliates and Apicomplexa are closely related (Edlind T. D. et al., Mol. Phylogenet. Evol. vol. 5, pp. 359-367, 1996). T. pyriformis (ATCC strain 30005) was grown in 1 ml ATCC medium 357 at 25° C. in 4 ml polyallomer culture tubes without shaking. Compounds were dissolved in dimethylsufoxide (DMSO) and added to the cultures (containing 3,000 cells/ml) such that the final DMSO concentration was 0.1-0.3%. […] Parasitol. vol. 84, pp. 355-370, 1996) and Cryptosporidium parvum (Arrowood et al., FEMS Microbial. Lett., vol. 136, pp. 245-249, 1996) were tested for comparison.

Series [5] has as its system Entamoeba histolytica. Kind of series: in vitro growth inhibitory activity against E. histolytica. It counts as cell-based. From the text: 35, pp. 2198-2202 (1991). Metronidazole was included as a standard in the test for comparative purposes.
For series [6], the system named is Toxoplasma gondii. Put plainly: growth inhibition of T. gondii in HFF host cells ([3H]-uracil incorporation). It counts as cell-based. As to conditions: HFF host cells. On the procedure: (§1) Compounds were tested for it vitro growth inhibitory activity against Toxoplasma gondii replication in L929 (L929-ATCC CCL 1, mouse connective tissue) or HFF (human foreskin fibroblast) host cells using the [^3 H]-uracil incorporation technique as follows. Host cells were grown in 96-well flat-bottom microtiter plates at 37° C in a 5% carbon dioxide environment in modified Eagle's medium containing penicillin, streptomycin and 10% fetal equine serum. Wells containing a homogeneous confluent monolayer of host cells were infected with T. gondii tachyzoites at a ratio of 3 parasites per cell (approximately 6×10^4 tachyzoites per well containing 100 μl of medium). […] Two hours post infection, the cultures were washed to remove free parasites and the various dilutions of test compound were added. Cells were subsequently collected at 24, 48 and 72 hours. Four hours prior to each harvesting 50 Al of [^3 H]-uracil (1 μCi) was added. Cells were collected using a cell harvester and incorporated radioactivity was measured using a scintillation counter. […]

Series [7] is described as follows: cytotoxicity towards HFF host cells (Cell Titer 96). The following applies: human, % Inhibition of host cell growth (values in parenthesis). As to the method:
(§2) Cytotoxicity of the test compounds towards host cells was determined using the Cell Titer 96™ it (Promega Corporation, Madison, Wis.) as follows. Cells were seeded at a concentration of 5×10^3 cells per well containing 100 μl of medium in 96-well flat-bottom microtiter plates and incubated at 37° C. in a 5% carbon dioxide environment for 4 hours. Dilutions of the test compounds prepared as described above were then added, and incubation continued for 24, 48 or 72 hours. Four hours before each of these time points the growth medium containing test compound was replaced with 100 μl of fresh medium followed by addition of 16 μl of the kit dye solution. After incubation at 37° C. for another 4 hours, 100 μl of the kit solubilization/stop solution was added to each well, the contents of the wells were mixed and the plates kept 1 hour at room temperature. The plates were then read spectrophotometrically in a plate reader at a wavelength of 570 nm. […] Atovaquone was included in the test as a standard.

Series [8] deals with Toxoplasma gondii. Put plainly: growth inhibition of T. gondii in L929 host cells ([3H]-uracil incorporation). It counts as cell-based. The following applies: L929 host cells; for inhibition at 5 µg/mL: Toxoplasma gondii, read-out: % Inhibition. As to the method:
as §1

Series [9] can be described thus: toxicity towards MDBKF5D2 host cells (MTS). As to conditions: bovine, mdbkf5d2 cells, Cytotoxicity (percent toxicity), 100 μM. On the procedure: (§3) Compounds were tested for in vitro growth inhibitory activity against C. parvum grown in host MDBKF5D2 cells and for toxicity towards the host cells as follows. […] To test for toxicity towards the host cells, the media containing test compound (200 μl) were introduced into two wells of a 96 well microtiter plate containing confluent MDBKF5D2 cell monolayers and two wells without monolayers, and incubated at 37° C. in an 8% carbon dioxide environment. After 48 hours, the tetrazolium salt MTS (Owen's solution) and phenazine methosulfate were added to each well at concentrations of 333 μg/ml and 25 μM, respectively. The plate was returned to the incubator in the dark to develop for 2 hours, then 100 μl of each supernatant was transferred to a new microtiter plate and read spectrophotometrically in a plate reader at a wavelength of 490 nm. Percent toxicity was calculated by subtracting the mean optical density (OD) of the drug supernatants from the OD of medium control supernatants (no drug), dividing by the OD of the medium control, and multiplying by 100. To test for growth inhibitory activity against C. parvum, 3×10^4 oocysts per well were incubated in mentioned concentrations of each drug at 37° C. (8% CO2) on confluent MDBKF5D2 cell monolayers in 96 well microtiter plates. After 48 hours, the level of infection in each well was determined by means of an immunofluorescence assay. Percent inhibition of growth was calculated by subtracting the mean parasite count in the wells containing test compound from the mean parasite count in the medium control wells (no test compound), dividing by the mean parasite count in the medium control wells, and multiplying by 100. Paromomycin was included in the test as a standard.

For series [10], the system named is MDBKF5D2 cells. Put plainly: toxicity towards MDBKF5D2 host cells (MTS). As to conditions: 48 hours, 2880 min. On the procedure:
as §3

Series [11] deals with Cryptosporidium parvum. Put plainly: growth inhibitory activity against C. parvum in host MDBKF5D2 cells (immunofluorescence). It counts as cell-based. The following applies: for % Inhibition: 48 hours. As to the method:
as §3

A short description of series [12]: cytotoxicity towards L929 host cells (Cell Titer 96). As to conditions: mouse, % Inhibition of host cell growth (values in parenthesis). As to the method:
as §2

The structures appear in SMILES notation. ≈ marks a conversion by molar mass, not a printed value. Some results are limits rather than exact numbers.

These results are taken from patent US6107316A, “Method for treating protozoal infections” (priority 1998, dated 2000).

For `CCC(C)(NC(=O)c1cc(Cl)cc(C=NOC)c1)C(=O)CCl` (centres unmarked) [Compound 2], the activity at 0.1 µg/mL in series [1] was 29%. Moreover, the EC50 in [2] was 0.03 µg/mL (≈ 0.0869 µM); in series [3], 0.03 µg/mL (≈ 0.0869 µM); in [4] it was less than 0.01 µg/mL; in [5], 12 µg/mL (≈ 34.8 µM).
Turning to `CCC(C)(NC(=O)c1cc(C)cc(Br)c1)C(=O)CCl` (centres unmarked) [Compound 3], the concentration giving a half-maximal response (EC50) in series [2] was 0.2 µg/mL (≈ 0.577 µM); in series [3], 0.06 µg/mL (≈ 0.173 µM); in series [4], less than 0.01 µg/mL; in series [5] it was 16 µg/mL (≈ 46.2 µM).
As to `CCC(C)(NC(=O)c1cc(Cl)cc(Cl)c1)C(=O)CCl` (centres unmarked) [Compound 5], the “% Inhibition” value in [6] (0.5 μg/ml, 48 hours) is reported as 97.6%; in series [6] (0.5 μg/ml, 72 hours), 80.2%; in [8] (0.5 μg/ml, 24 hours) it was 39.2%; in series [8] (0.5 μg/ml, 48 hours), 64.7%; in series [8] (0.5 μg/ml, 72 hours), 44.1%; in series [8] (5.0 μg/ml, 24 hours) it was 3.3%. Further, in series [11] (10 μM), the “% Inhibition” value was 34.1%. Also, the inhibition at 0.5 µg/mL in series [6] (Toxoplasma gondii, 24 h, 0.5 μg/ml, 24 hours, read-out: % Inhibition) worked out at 55.9%. For the same molecule, the inhibition at 5 µg/mL in [6] (Toxoplasma gondii, 24 h, 5.0 μg/ml, 24 hours, read-out: % Inhibition) was 89%; in series [6] (Toxoplasma gondii, 48 h, 5.0 μg/ml, 48 hours, read-out: % Inhibition), 100%; in series [6] (Toxoplasma gondii, 72 h, 5.0 μg/ml, 72 hours, read-out: % Inhibition), 99.6%; in series [8] (L929, 48 h, 5.0 μg/ml, 48 hours), 69.2%; in [8] (L929, 72 h, 5.0 μg/ml, 72 hours) it was 84%. In addition, the inhibition at 48 h amounted to 5.3% in series [7] (0.5 μg/ml, 48 hours); 0% in [12] (L929, 0.5 μg/ml); 66.8% in [12] (L929, 5.0 μg/ml). The inhibition at 24 h in series [7] (5.0 μg/ml, 24 hours) was 8%. Besides, the inhibition at 72 h in series [7] (5.0 μg/ml, 72 hours) worked out at 39.6%; in series [12] (L929, 0.5 μg/ml) it was 0%; in series [12] (L929, 5.0 μg/ml), 91.2%. Also, the EC50 is 0.06 µg/mL (≈ 0.186 µM) in [2], 0.02 µg/mL (≈ 0.062 µM) in [3] and 0.003 µg/mL (≈ 0.0093 µM) in [4]. The same molecule registered a cytotoxicity at 48 h, 100 µM in [9] of 72.6%. The “Cytotoxicity (percent toxicity)” value in series [10] (0.1 μM) amounted to 18.8%; in series [10] (1.0 μM), 6.7%; in series [10] (10 μM), 31.4%. Besides, 0.1 µM produced 10% inhibition in series [11] (Cryptosporidium parvum, 48 h, 0.1 μM). For the same molecule, the inhibition at 1 µM in series [11] (Cryptosporidium parvum, 48 h, 1.0 μM) turned out to be 17.4%.
For the molecule `CCC(C)(NC(=O)c1cc(Cl)cc(Cl)c1)C(=O)CCl` (centres unmarked) [Compound 13], the “% Inhibition” value in [6] (0.5 μg/ml, 24 hours) is reported as 72.3%; in [6] (0.5 μg/ml, 48 hours), 28.1%; in series [6] (0.5 μg/ml, 72 hours) it was 0%; in [6] (5.0 μg/ml, 24 hours), 93.0%; in [6] (5.0 μg/ml, 48 hours), 98.2%; in series [6] (5.0 μg/ml, 72 hours) it was 97.8%. Besides, the “% Inhibition” value in series [8] (0.5 μg/ml, 24 hours) was determined as 11.6%; in [8] (0.5 μg/ml, 48 hours) it was 33.2%; in series [8] (0.5 μg/ml, 72 hours), 0%; in series [8] (5.0 μg/ml, 24 hours), 11.4%; in series [8] (5.0 μg/ml, 48 hours), 83.9%; in series [8] (5.0 μg/ml, 72 hours), 88.5%. The “% Inhibition” value in [11] (0.1 μM) is 9.9%; in series [11] (1.0 μM), 12.5%; in [11] (10 μM) it was 15.7%. Further, the “Cytotoxicity (percent toxicity)” value in series [10] (0.1 μM) is 0%; in series [10] (1.0 μM) it was 2.4%; in series [10] (10 μM), 4.3%; in series [10] (100 μM), 54.3%. In [11] (Cryptosporidium parvum, 48 h, 100 μM), this molecule displayed an inhibition at 100 µM of 87.5%.
`CCC(C)(NC(=O)c1cncc(Br)c1)C(=O)CCl` (centres unmarked) [Compound 15]: in series [1], the activity at 0.1 µg/mL stood at 13%. For the same molecule, the EC50 was 0.7 µg/mL (≈ 2.1 µM) in [2], 0.2 µg/mL (≈ 0.599 µM) in series [3], less than 0.01 µg/mL in series [4] and 20 µg/mL (≈ 59.9 µM) in series [5].
As for `Cc1ncc([N+](=O)[O-])n1CCO` [Metronidazole, reference compound], the EC50 in series [3] was found to be 0.7 µg/mL (≈ 4.09 µM); in [5], 0.5 µg/mL (≈ 2.92 µM).

As a reminder, the EC50 is the concentration that produces a half-maximal response. A word on the % Inhibition: it is the percentage by which the read-out fell short of the control. A lower % Inhibition goes with a weak effect. The inhibition is the change of the read-out against control, counted positive when it falls.
